Tested on: B16–F10 cells
Experiment: RNaseq gene expression profiling;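 on logFC Cck: Hybrid compounds tested at 10 µM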;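 on logFC Cited1: Hybrid compounds tested at 10 µM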
Assay type: cell-based, mouse
Conditions: 100 nM, 24 h
Method: AC-340 superinduced CYP24A1 expression in all cell lines tested, and ZG-126 appeared to be a hyperagonist in SK-MEL-28 cells. […] AC-340 treatment produced 3 times more differentially expressed genes (DEGs) than AM-193, with ZG-126 producing an intermediate number (Figure A). […] The varying effects of each treatment on the numbers of regulated genes and the fold changes observed are reflected in plots of log-fold changes and volcano plots (Figure S3B).
A quality control was performed before sequencing in paired-end at 50 M reads by Illumina NovaSeq 6000 S4 PE100. After sequencing, the FASTQ files were sent to us and all downstream analysis were performed on Galaxy (Galaxy (usegalaxy.org)). First, trimmomatic tool was used to remove the adapters from the reads. Then, using the alignment tool, HISAT2, the reads were mapped to the mouse genome. In the next step, the counted reads were annotated and finally the list of differentially expressed genes (DEGs) for each treatment was obtained using the preinstalled R package called Limma.

## O=C(CCCCCCC(=O)Nc1ccccc1)NO [SAHA, suberoylanilide hydroxamic acid]
  logFC 1500009L16Rik: 0.7062
  logFC Abca13: 0.7574
  logFC Adam19: 0.5841
  logFC Adamts7: 1.124
  logFC Adamts14: 1.217
  logFC Ank3: 0.7456
  logFC Apbb1: 0.8022
  logFC Atcay: 1.535
  logFC Atp1b2: 0.7178
  logFC Atp2b4: 0.9179
  logFC Bcan: 0.5824
  logFC Btn1a1: 2.439
  logFC C1qtnf1: 1.607
  logFC C1s1: 0.9877
  logFC Card10: 0.6233
  logFC Cck: -0.6184
  logFC Ccl2: 0.7906
  logFC Chn1: 0.6625
  logFC Cited1: -0.5815
  logFC Clcnka: 1.628
  logFC Clu: 0.9236
  logFC Col1a1: 1.702
  logFC Cpm: 0.8993
  logFC Crip1: 0.7228
  logFC Crmp1: 0.7266
  logFC Csdc2: 1.013
  logFC Dock10: 0.6896
  logFC Egfl7: 0.5994
  logFC Elovl4: 0.6542
  logFC Enpp1: 0.7446
  logFC Enpp3: 0.9035
  logFC Entpd2: 0.9577
  logFC Fam131b: 1.153
  logFC Fbxo41: 0.8175
  logFC Fstl1: 1.348
  logFC Gli1: 1.843
  logFC Glipr2: 0.8149
  logFC Gpr162: 0.6749
  logFC Gsdmc: 0.6713
  logFC Gstt1: 1.731
  logFC Hoxb9: 0.9565
  logFC Itga8: 0.6392
  logFC Jam2: 0.5927
  logFC Kcnh2: 1.1509
  logFC Kcnt1: 2.101
  logFC Kdelr3: 0.5979
  logFC Klrg2: 0.6093
  logFC Loxl4: 0.8565
  logFC Lrp11: 0.65
  logFC Lrrc75b: 1.006
  logFC Ltbp4: 1.299
  logFC Map2: 0.5974
  logFC Mgat3: 0.5859
  logFC Mmp11: 0.7246
  logFC Mmp17: 1.252
  logFC Mogat2: 0.5856
  logFC Myl9: 0.6886
  logFC Nacad: 0.9826
  logFC Ndrg4: 0.8254
  logFC Neurl1a: 0.5887
  logFC Notch1: 0.8121
  logFC Palld: 0.5874
  logFC Pcdh17: 0.6033
  logFC Pdgfra: 1.16
  logFC Plat: 0.5899
  logFC Plppr2: 0.641
  logFC Plppr3: 0.7184
  logFC Pmm1: 0.5873
  logFC Ppm1j: 0.9349
  logFC Prelp: 0.6949
  logFC Prnd: 0.9638
  logFC Prph: 1.113
  logFC Ptgs1: 0.7769
  logFC Rab7b: 1.164
  logFC Rasa4: 1.171
  logFC Rcn3: 0.5908
  logFC Reep6: 0.6217
  logFC Rflnb: 0.6241
  logFC Rhpn2: 0.7266
  logFC Rtn2: 0.735
  logFC Rtn4rl2: 1.53
  logFC Rundc3a: 0.8211
  logFC S100a6: 0.8372
  logFC Scube3: 0.7375
  logFC Septin4: 0.8607
  logFC Septin5: 1.1153
  logFC Spn: 1.292
  logFC Sptbn2: -0.6313
  logFC Stum: 0.9146
  logFC Syt3: 1.3692
  logFC Syt7: 0.603
  logFC Tagln2: 0.7428
  logFC Tgm2: 1.1319
  logFC Thbs3: 0.7215
  logFC Tlr1: 0.6918
  logFC Trim47: 0.6166
  logFC Trnp1: 0.6142
  logFC Uchl1: 0.7608
  logFC Vash1: 0.6486
  logFC Vdr: 1.045
  logFC Wfdc1: 0.7568
  logFC Wnt6: 1.4553

From article PMC12517324, “Hyperagonism of a Vitamin D Receptor Agonist/Histone Deacetylase Inhibitor Hybrid Molecule” (Journal of Medicinal Chemistry, 2025)
